# Entries after “also recorded” stand apart in the source; their conditions may differ. Read-outs that look alike come from different tables or passages of the source.
# Assays:
# [1] = Critical water activity study, competitive slurry in THF/H2O at rt, XRPD
# Description: Critical water activity (aw) study was performed for mono-sodium salt Form A (monohydrate), Form E (hemihydrate) and Form D (anhydrate) to investigate the form relationship. It was conducted via competitive slurry in THF/H2O with a series of aw (0~1) at rt. Specifically, ~10 mg staring material was suspended in 0.4 mL THF/H2O (aw of 0, 0.2, 0.4, 0.6, 0.8 and 1.0) at rt. After equilibrium for 2 hrs, collect the filtrates to the HPLC vials containing Form A and Form D with equivalent mass ratio. After stirring magnetically at rt for 1~2 days, collect the solids for XRPD analysis.
# [2] = Solubility in water at various temperatures; type: physicochemical; conditions: for Final Form: XRPD
# Description: (§1) High Performance Liquid Chromatography (HPLC): HPLC of Agilent 1260 with DAD detector was employed to detect the purity and solubility, with the methods shown in Table 1.
# Solubility in Water at various Temperature: Solubility test was conducted for Form A in water at various temperatures. Specifically, about 3~5 mg Form A sample was added to 1 mL water. After stirring at 750 rpm at desired temperatures (25/35/50/60/70° C.) for 1~2 hrs, solids were isolated for XRPD to check the crystal form and the supernatants were collected for a HPLC analysis to detect the solubility.
# [3] = Dynamic vapor sorption (DVS) hygroscopicity of Form A; type: physicochemical
# Description: In some embodiments, the crystalline form described herein is further characterized by a dynamic vapor sorption (DVS). In some embodiments, the DVS is recorded using a sample weight of a few milligrams (e.g., about 20 mg) on an ADVENTURE series DVS at 25° C. under nitrogen. In some embodiments, the sample is subjected to the cycle as follows: 1) ambient relative humidity (RH) to 90% RH at a rate of 10% RH and from 90% RH to 95% RH in a rate of 5% RH; 2) 95% RH to 90% RH at a rate of 5% RH and 90% RH to 0% RH at a rate of 10% RH; and 3) 0% RH to 90% RH at a rate of 10% RH and 90% RH to 95% RH in a rate of 5% RH.
# Dynamic Vapor Sorption (DVS): Dynamic vapor sorption was performed with an ADVENTURE series DVS at 25° C. under nitrogen blow. Approximately 20 milligrams of material was used. Samples were analyzed using method below: • 1. Ambient relative humidity to 95% RH at 10% RH (5% from 90% RH to 95% RH) • 2. 95% RH to 0% RH at 10% RH (5% RH from 95% RH to 90% RH) • 3. 0% RH to 95% RH at 10% RH (5% RH from 90% RH to 95% RH)
# To understand the hygroscopicity of Form A, dynamic vapor sorption (DVS) was employed to measure the mass change as a function of relative humidity at 25° C. Form A was equilibrated at ambient relative humidity before analysis.
# [4] = 24-hr pH solubility and form stability in six pH buffers at 25° C.; type: physicochemical; conditions: for solubility at 24 h: aqueous buffer
# Description: as §1
# After shaking at 100 rpm at 25° C. for 24 hrs, the suspensions were centrifuged. The solids were analyzed by XRPD for crystal form, and the filtrates of supernatants were analyzed by HPLC for solubility and by pH meter for pH value.
# [5] = Solubility in 20% EtOH in water and 20% DMAc in water at room temperature; type: physicochemical; conditions: organic solvent or mixture, 20~60 mins
# Description: as §1
# Solubility in Various Solvents: Solubility of Form A was also measured in 20% EtOH in water and 20% DMAc in water at room temperature (rt). Specifically, about 3 mg Form A sample was added to 0.6 mL solvent.
smiles,measurement,setting,value
O=C([O-])c1nn[nH]c1Oc1ccc(-c2ccc(C3CC(F)(F)C3)cc2)cc1.[Na+],relative form stability,"[1]; THF/H2O, aw of 0~0.8, rt",more stable than monohydrate Form A and anhydrate Form D
"O.O=C([O-])c1nn[nH]c1Oc1ccc(-c2ccc(C3CC(F)(F)C3)cc2)cc1.[Na+] [Form A, sodium 5-((4′-(3,3-difluorocyclobutyl)-[1,1′-biphenyl]-4-yl)oxy)-1H-1,2,3-triazole-4-carboxylate monohydrate]",relative form stability,"[1]; water, aw of 1.0, rt",more stable than Form D
same,solubility,"[2]; 25~70° C., read-out: solubility as a function of temperature",1100 to 2300 µg/mL
same,solubility,"[2]; 25° C., 1~2 hrs, read-out: Solubility",1100 µg/mL
same,Final Form,[2]; 25° C.,Forms A + C
same,solubility,"[2]; 35° C., 1~2 hrs, read-out: Solubility",1300 µg/mL
same,solubility,"[2]; 50° C., 1~2 hrs, read-out: Solubility",1940 µg/mL
same,solubility,"[2]; 60° C., 1~2 hrs, read-out: Solubility",1860 µg/mL
same,Final Form,[2]; 60° C.,Forms A + C
same,solubility,"[2]; 70° C., 1~2 hrs, read-out: Solubility",2320 µg/mL
same,form transformation in water,[2]; various temperatures,partial conversion to Form C
same,water uptake,[3]; 25° C./80% RH compared to starting point (60% RH),negligible water uptake
same,"weight gain, DVS cycle","[3]; 60% RH to 80% RH, 25° C.",less than 0.03%
same,"weight loss, first dynamic vapor desorption cycle","[3]; 80% RH to 60% RH, 25° C.",less than 0.03%
same,hygroscopicity,"[3]; DVS, 25° C., monohydrate",non-hygroscopic; also recorded: non-hygroscopicity
same,form stability under humidity,"[3]; broad humidity range, DVS 25° C.",good form stability
same,water lost,"[3]; relative humidity below 10% RH, 25° C.",~ 0.6%
same,solubility at 24 h,"[4]; pH 7.0 buffer, 25° C., read-out: Solubility",55 µg/mL
same,solubility at 24 h,"[4]; pH 8.0 buffer, 25° C., read-out: Solubility",404 µg/mL
same,solubility at 24 h,"[4]; pH 10.0 buffer, 25° C., read-out: Solubility",4830 µg/mL
same,solubility,"[4]; pH 2.0/4.0/6.0, 25° C.",limited solubility
same,Final pH (measured),"[4]; pH 2.0 buffer, 25° C.",pH 2.5
same,solubility,"[4]; pH 2.0 buffer, 25° C.",<LOD
same,Form Change,"[4]; pH 2.0 buffer, 25° C., XRPD of solids",Yes
same,Form Change,"[4]; pH 2.0~7.0, 25° C.",new diffractive peaks
same,Final pH (measured),"[4]; pH 4.0 buffer, 25° C.",pH 4.4
same,solubility,"[4]; pH 4.0 buffer, 25° C.",<LOD
same,Form Change,"[4]; pH 4.0 buffer, 25° C., XRPD of solids",Yes
same,Final pH (measured),"[4]; pH 6.0 buffer, 25° C.",pH 6.2
same,solubility,"[4]; pH 6.0 buffer, 25° C.",<LOD
same,Form Change,"[4]; pH 6.0 buffer, 25° C., XRPD of solids",Yes
same,Final pH (measured),"[4]; pH 7.0 buffer, 25° C.",pH 7.1
same,Form Change,"[4]; pH 7.0 buffer, 25° C., XRPD of solids",Yes
same,Form Change,"[4]; pH 8.0/10.0, 25° C.",no form change
same,Final pH (measured),"[4]; pH 8.0 buffer, 25° C.",pH 7.4
same,Form Change,"[4]; pH 8.0 buffer, 25° C., XRPD of solids",No
same,Final pH (measured),"[4]; pH 10.0 buffer, 25° C.",pH 8.4
same,Form Change,"[4]; pH 10.0 buffer, 25° C., XRPD of solids",No
same,solubility at 24 h,"[4]; ph buffer, pH 2.0~10.0, 25° C., read-out: solubility as a function of pH",< 4800 µg/mL
same,solubility,[5]; 20% DMAc in water,3300 µg/mL
same,solubility,[5]; 20% EtOH in water,1900 µg/mL

# From patent publication US20260285817A1, “CRYSTALLINE FORMS OF A 1H-1,2,3-TRIAZOLE-4-CARBOXYLIC ACID COMPOUND” (CANTERO THERAPEUTICS, INC., priority 2023, published 2026)
